The text below walks through data of patent US20240368173A1, “TRICYCLIC GPR65 MODULATORS” (PATHIOS THERAPEUTICS LIMITED, priority 2021, published 2024).

The assay addresses human recombinant GPR65 (Homo sapiens, UniProt Q8IYL9). The assay can be described thus: Human GPR65 cAMP HTRF antagonist assay. Type of assay: cell-based. In short, it runs like this:
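1321N1 astrocytoma cells stably expressing hrGPR65, with IBMX and EDTA, were preincubated with compound 30 min at room temperature, then acid-activated at assay pH 7.2 (control pH 7.9) for 30 min. cAMP read by HTRF (665/620 nm ratio); IC50 from 4-parameter fit normalised to high/low controls.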

SMILES strings stand for the structures.

Chain of human recombinant GPR65 (Q8IYL9 whole entry): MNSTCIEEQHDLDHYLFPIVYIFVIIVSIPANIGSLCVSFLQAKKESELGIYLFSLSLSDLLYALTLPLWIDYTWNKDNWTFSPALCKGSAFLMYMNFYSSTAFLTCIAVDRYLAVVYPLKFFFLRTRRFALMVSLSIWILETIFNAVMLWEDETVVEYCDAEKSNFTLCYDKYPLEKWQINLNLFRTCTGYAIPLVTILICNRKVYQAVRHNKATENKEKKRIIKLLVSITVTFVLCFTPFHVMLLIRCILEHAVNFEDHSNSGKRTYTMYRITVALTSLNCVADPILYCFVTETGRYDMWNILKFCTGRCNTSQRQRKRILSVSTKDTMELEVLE

Consider `O=C(Nc1cc(Cl)c(-c2cccc3nonc23)cc1F)N1[C@H]2CC[C@@H]1c1n[nH]c(=O)cc1C2` [Compound 210, (6S,9R)-N-(4-(Benzo[c][1,2,5]oxadiazol-4-yl)-5-chloro-2-fluorophenyl)-3-oxo-3,5,6,7,8,9-hexahydro-2H-6,9-epiminocyclohepta[c]pyridazine-10-carboxamide], for which the IC50 was below 500 nM.
As to `COc1ccc(-c2cc(F)c(NC(=O)N3[C@H]4CC[C@@H]3c3n[nH]c(=O)cc3C4)cc2Cl)nc1` [Compound 211, (6S,9R)-N-(5-Chloro-2-fluoro-4-(5-methoxypyridin-2-yl)phenyl)-3-oxo-3,5,6,7,8,9-hexahydro-2H-6,9-epiminocyclohepta[c]pyridazine-10-carboxamide], the IC50 is below 500 nM.
The figure for `O=C(Nc1cc(C(F)(F)F)c(-c2ccc(F)nc2)cc1F)N1[C@H]2CC[C@@H]1c1n[nH]c(=O)cc1C2` [Compound 212, (6S,9R)-N-(2-Fluoro-4-(6-fluoropyridin-3-yl)-5-(trifluoromethyl)phenyl)-3-oxo-3,5,6,7,8,9-hexahydro-2H-6,9-epiminocyclohepta[c]pyridazine-10-carboxamide] is below 500 nM; for `COc1ccc(-c2cc(F)c(NC(=O)N3[C@H]4CC[C@@H]3c3n[nH]c(=O)cc3C4)cc2C(F)(F)F)cn1` [Compound 213, (6S,9R)-N-(2-Fluoro-4-(6-methoxypyridin-3-yl)-5-(trifluoromethyl)phenyl)-3-oxo-3,5,6,7,8,9-hexahydro-2H-6,9-epiminocyclohepta[c]pyridazine-10-carboxamide] it is below 500 nM; for `COc1ccc(-c2cc(F)c(NC(=O)N3[C@H]4CC[C@@H]3c3ccnc(F)c3C4)cc2Cl)c(F)n1` [Compound 214, (5R,8S)-N-(5-Chloro-2-fluoro-4-(2-fluoro-6-methoxypyridin-3-yl)phenyl)-1-fluoro-6,7,8,9-tetrahydro-5H-5,8-epiminocyclohepta[c]pyridine-10-carboxamide] it is below 500 nM.
On to `O=C(Nc1cc(Cl)c(-c2ccc(OCC(F)(F)F)nc2)cc1F)N1[C@H]2CC[C@@H]1c1n[nH]c(=O)cc1C2` [Compound 215, (6S,9R)-N-(5-Chloro-2-fluoro-4-(6-(2,2,2-trifluoroethoxy)pyridin-3-yl)phenyl)-3-oxo-3,5,6,7,8,9-hexahydro-2H-6,9-epiminocyclohepta[c]pyridazine-10-carboxamide], for which the 50% inhibitory concentration (IC50) is below 500 nM.
`O=C(Nc1cc(Cl)c(-c2ccc(OC3CCC3)nc2)cc1F)N1[C@H]2CC[C@@H]1c1n[nH]c(=O)cc1C2` [Compound 216, (6S,9R)-N-(5-Chloro-4-(6-cyclobutoxypyridin-3-yl)-2-fluorophenyl)-3-oxo-3,5,6,7,8,9-hexahydro-2H-6,9-epiminocyclohepta[c]pyridazine-10-carboxamide]: the IC50 was below 500 nM.
Consider `COc1ncc(-c2cc(F)c(NC(=O)N3[C@H]4CC[C@@H]3c3c[nH]c(=O)cc3C4)cc2Cl)cc1F` [Compound 217, (6S,9R)-N-(5-Chloro-2-fluoro-4-(5-fluoro-6-methoxypyridin-3-yl)phenyl)-3-oxo-3,5,6,7,8,9-hexahydro-2H-6,9-epiminocyclohepta[c]pyridine-10-carboxamide], for which the IC50 was below 500 nM.
On to `CC(C)Oc1cc(-c2cc(F)c(NC(=O)N3[C@H]4CC[C@@H]3c3n[nH]c(=O)cc3C4)cc2Cl)ccn1` [Compound 218, (6S,9R)-N-(5-Chloro-2-fluoro-4-(2-isopropoxypyridin-4-yl)phenyl)-3-oxo-3,5,6,7,8,9-hexahydro-2H-6,9-epiminocyclohepta[c]pyridazine-10-carboxamide], for which the IC50 was below 500 nM.
The figure for `COc1ncc(-c2cc(F)c(NC(=O)N3[C@H]4CC[C@@H]3c3ccnc(F)c3C4)cc2Cl)cc1F` [Compound 219, (5R,8S)-N-(5-Chloro-2-fluoro-4-(5-fluoro-6-methoxypyridin-3-yl)phenyl)-1-fluoro-6,7,8,9-tetrahydro-5H-5,8-epiminocyclohepta[c]pyridine-10-carboxamide] is below 500 nM; for `O=C(Nc1cc(Cl)c(-c2ccc(OCCN3CCCCC3)nc2)cc1F)N1[C@H]2CC[C@@H]1c1ccnc(F)c1C2` [Compound 220, (5R,8S)-N-(5-Chloro-2-fluoro-4-(6-(2-(piperidin-1-yl)ethoxy)pyridin-3-yl)phenyl)-1-fluoro-6,7,8,9-tetrahydro-5H-5,8-epiminocyclohepta[c]pyridine-10-carboxamide] it is below 500 nM.
The figure for `O=C(Nc1cc(Cl)c(-c2ccc(OC3CC3)nc2)cc1F)N1[C@H]2CC[C@@H]1c1n[nH]c(=O)cc1C2` [Compound 221, (6S,9R)-N-(5-Chloro-4-(6-cyclopropoxypyridin-3-yl)-2-fluorophenyl)-3-oxo-3,5,6,7,8,9-hexahydro-2H-6,9-epiminocyclohepta[c]pyridazine-10-carboxamide] is below 500 nM.
Regarding `O=C(Nc1cc(Cl)c(-c2ccc(OC3CC3)nc2)cc1F)N1[C@H]2CC[C@@H]1c1c[nH]c(=O)cc1C2` [Compound 222, (6S,9R)-N-(5-Chloro-4-(6-cyclopropoxypyridin-3-yl)-2-fluorophenyl)-3-oxo-3,5,6,7,8,9-hexahydro-2H-6,9-epiminocyclohepta[c]pyridine-10-carboxamide], the IC50 was below 500 nM.
With `O=C(Nc1cc(F)c(-c2ccc(C(F)(F)F)nc2)cc1F)N1[C@H]2CC[C@@H]1c1ccnc(F)c1C2` [Compound 223, (5R,8S)-N-(2,5-Difluoro-4-(6-(trifluoromethyl)pyridin-3-yl)phenyl)-1-fluoro-6,7,8,9-tetrahydro-5H-5,8-epiminocyclohepta[c]pyridine-10-carboxamide], the IC50 is below 500 nM.
In the case of `O=C(Nc1cc(Cl)c(F)cc1Oc1ccc2nonc2c1)N1[C@H]2CC[C@@H]1c1n[nH]c(=O)cc1C2` [Compound 224, (6S,9R)-N-(2-(Benzo[c][1,2,5]oxadiazol-5-yloxy)-5-chloro-4-fluorophenyl)-3-oxo-3,5,6,7,8,9-hexahydro-2H-6,9-epiminocyclohepta[c]pyridazine-10-carboxamide] it was 500 to 5000 nM; in that of `O=C(Nc1cc(Cl)c(Oc2ccc(F)nc2)cc1F)N1[C@H]2CC[C@@H]1c1n[nH]c(=O)cc1C2` [Compound 225, (6S,9R)—N-(5-Chloro-2-fluoro-4-((6-fluoropyridin-3-yl)oxy)phenyl)-3-oxo-3,5,6,7,8,9-hexahydro-2H-6,9-epiminocyclohepta[c]pyridazine-10-carboxamide], below 500 nM.
For the molecule `O=C(Nc1cc(Cl)c(C(F)(F)F)cc1F)N1[C@@H]2CC[C@H]1C(F)(F)c1c2ccnc1F` [Compound 227, (5R,8S)-N-(5-Chloro-2-fluoro-4-(trifluoromethyl)phenyl)-1,9,9-trifluoro-6,7,8,9-tetrahydro-5H-5,8-epiminocyclohepta[c]pyridine-10-carboxamide], the IC50 is below 500 nM.
`O=C(Nc1cc(Cl)c(C(F)(F)F)cc1F)N1[C@H]2CC[C@@H]1C(F)(F)c1c2ccnc1F` [Compound 228, (5S,8R)-N-(5-Chloro-2-fluoro-4-(trifluoromethyl)phenyl)-1,9,9-trifluoro-6,7,8,9-tetrahydro-5H-5,8-epiminocyclohepta[c]pyridine-10-carboxamide]: the IC50 was 500 to 5000 nM.
As to `O=C(Nc1cc(Cl)c(-c2cncc(F)c2)cn1)N1[C@H]2CC[C@@H]1c1n[nH]c(=O)cc1C2` [Compound 229, (6S,9R)-N-(4-Chloro-5′-fluoro-[3,3′-bipyridin]-6-yl)-3-oxo-3,5,6,7,8,9-hexahydro-2H-6,9-epiminocyclohepta[c]pyridazine-10-carboxamide], the IC50 was below 500 nM.
